According to patent US7329757B2 (Bayer Aktiengesellschaft, priority 2000, dated 2008):

What was measured:
[1] = logP determination by HPLC on reversed-phase column (C 18), EEC Directive 79/831 Annex V.A8; format: physicochemical
Description: The calibration was carried out using unbranched alkan-2-ones (having 3 to 16 carbon atoms) with known logP values (determination of the logP values by the retention times using linear interpolation between two successive alkanones).

weeds [2] = assay: Pre-emergence test (Example A), damage to weeds; format: in vivo; details: soil sprayed 24 hours after sowing, rated after three weeks
Description: (§1) To produce a suitable preparation of active compound, 1 part by weight of active compound is mixed with the stated amount of solvent, the stated amount of emulsifier is added and the concentrate is diluted with water to the desired concentration.
Seeds of the test plants are sown in normal soil. After 24 hours, the soil is sprayed with the preparation of active compound such that the particular amount of active compound desired is applied per unit area. The concentration of active compound in the spray liquors is chosen so that the particular amount of active compound desired is applied in 1000 litres of water per hectare.
After three weeks, the degree of damage to the plants is rated in % damage in comparison to the development of the untreated control.

weeds [3] = assay: Post-emergence test (Example B), damage to weeds; format: in vivo; details: test plants of 5-15 cm sprayed, rated after three weeks
Description: as §1
Test plants of a height of 5-15 cm are sprayed with the preparation of active compound such that the particular amounts of active compound desired are applied per unit area. The concentration of the spray liquor is chosen so that the particular amounts of active compound desired are applied in 1000 l of water/ha.
After three weeks, the degree of damage to the plants is rated in % damage in comparison to the development of the untreated controls.

Row | melting point | Compound | activity against weeds (degree of damage) (weeds [2]) | also measured
1 |  | 5-methyl-1-(2,3-difluoromethylenedioxy-phenyl)-2(1H)-pyridinone [IX-28] |  | logP [1]: 3.95
2 | 115 °C | Cc1cc/c(=N\C(=O)C(F)(F)F)n(-c2cccc(C(F)(F)F)c2)c1 [Example 1, 2,2,2-trifluoro-N-[5-methyl-1-(3-trifluoromethylphenyl)-2(1H)-pyridinylidene]-acetamide] | strong activity against weeds | activity against weeds (degree of damage) (weeds [3]): strong activity against weeds
3 |  | Cc1ccc(=NC(=O)OC(C)C)n(-c2cccc(C(F)(F)F)c2)c1 [Example 2] | strong activity against weeds | chromatographic logP ([1]; HPLC, range (acidic/neutral) not labelled): 1.59
4 | 165 °C | Cc1cc/c(=N\C#N)n(-c2cccc(C(F)(F)F)c2)c1 [Example 3, 5-methyl-1-(3-trifluoromethyl-phenyl)-2(1H)-pyridinylidenecyanamide] | strong activity against weeds | activity against weeds (degree of damage) (weeds [3]): strong activity against weeds
5 | 114 °C | CNC(=O)/N=c1\ccc(C)cn1-c1cccc(C(F)(F)F)c1 [Example 4, N-methyl-N′-[5-methyl-1-(3-trifluoromethylphenyl)-2(1H)-pyridinylidene]-urea] |  | 
6 | 206 °C | Cc1ccc(=NS(=O)(=O)C(F)(F)F)n(-c2cccc(C(F)(F)F)c2)c1 [Example 5, N-[5-methyl-1-(3-trifluoromethyl-phenyl)-2(1H)-pyridinylidene]-trifluoromethanesulphonamide] |  | 
7 | 179 °C | Cc1cc/c(=N\c2nnc(C(F)(F)F)s2)n(-c2cccc(C(F)(F)F)c2)c1 [Example 6, N-(5-trifluoromethyl-1,3,4-thiadiazol-2-yl)-5-methyl-1-(3-trifluoromethyl-phenyl)-2(1H)-pyridinimine] |  | 
8 | 174 °C | Cc1ccc(S(=O)(=O)/N=c2\ccc(C)cn2-c2cccc(C(F)(F)F)c2)cc1 [Example 7, 4-methyl-N-[5-methyl-1-(3-trifluoromethylphenyl)-2(1H)-pyridinylidene]-benzenesulphonamide] |  | 
9 |  | Cc1cc/c(=N\C2CC2)n(-c2cccc(C(F)(F)F)c2)c1 [Example 8, N-cyclopropyl-5-methyl-1-(3-trifluoromethylphenyl)-2(1H)-pyridineimine] |  | chromatographic logP ([1]; reversed-phase HPLC column (C 18), HPLC, range (acidic/neutral) not labelled): 1.51
10 | 95 °C | Cc1ccc(=O)n(-c2cccc(C(F)(F)F)c2)c1 [IX-1, 5-methyl-1-(3-trifluoromethyl-phenyl)-2(1H)-pyridinone] | strong activity against weeds | activity against weeds (degree of damage) (weeds [3]): strong activity against weeds
11 | 122 °C | Cc1cccn(-c2cccc(C(F)(F)F)c2)c1=O [IX-34, 3-methyl-1-(3-trifluoromethyl-phenyl)-2(1H)-pyridinone] |  | 
12 |  | O=c1ccc(C(F)(F)F)cn1-c1cccc(C(F)(F)F)c1 [IX-35, 5-trifluoromethyl-1-(3-trifluoromethyl-phenyl)-2(1H)-pyridinone] |  | chromatographic logP ([1]; reversed-phase HPLC column (C 18); labelled a): acidic range, 0.1% aqueous phosphoric acid/acetonitrile gradient, 43° C.): 2.78
